Data as given in US20260028336A1 (Arcus Biosciences, Inc., priority 2022, published 2026).

Biological target: T1, Cbl-b (Homo sapiens, UniProt Q13191)
T1 construct: biotin (biotinylated)
Experiment: Cbl-b probe displacement HTRF binding assay
Details: 0.4 nM biotinylated Cbl-b, 150 nM BODIPY probe
Procedure: The affinity with which compounds of the present dislcosure bind to Cbl-b was assessed using probe displacement homologous time resolved fluorescence (HTRF) assays. […] The assays were performed in assay buffer consisting of 20 mM Hepes, 150 mM NaCl, 0.01% Triton X-100, 0.5 mM TCEP, 0.01% BSA. On the day of the assay, a 20 point, 1:2 master serial dilution of each compound was prepared in DMSO to span a final concentration range of […] to 0 nM. Two hundred nanoliters of diluted compound was added to each well of a 384-well plate. Fifteen microliters of biotinylated-Cbl-b resuspended in assay buffer were added to each well and the plate incubated for 60 minutes at room temperature prior to addition of 5 μL of BODIPY™ probe in assay buffer. […] After a further 15 minutes of incubation at room temperature, 5 μl of Streptavidin-Terbium cryptate reagent at 5-fold final concentration was added to each well of the 384-well plate. Binding of a probe to Cbl-b results in an increase of HTRF signal. […] Percentage maximum activity in each test well was calculated based on DMSO (maximum activity, 0% displacement) and no protein control wells (baseline activity, 100% displacement). Binding affinity was determined from a dose response curve fitted using a standard four parameter fit equation.

T1 sequence (Q13191 whole entry, species assumed): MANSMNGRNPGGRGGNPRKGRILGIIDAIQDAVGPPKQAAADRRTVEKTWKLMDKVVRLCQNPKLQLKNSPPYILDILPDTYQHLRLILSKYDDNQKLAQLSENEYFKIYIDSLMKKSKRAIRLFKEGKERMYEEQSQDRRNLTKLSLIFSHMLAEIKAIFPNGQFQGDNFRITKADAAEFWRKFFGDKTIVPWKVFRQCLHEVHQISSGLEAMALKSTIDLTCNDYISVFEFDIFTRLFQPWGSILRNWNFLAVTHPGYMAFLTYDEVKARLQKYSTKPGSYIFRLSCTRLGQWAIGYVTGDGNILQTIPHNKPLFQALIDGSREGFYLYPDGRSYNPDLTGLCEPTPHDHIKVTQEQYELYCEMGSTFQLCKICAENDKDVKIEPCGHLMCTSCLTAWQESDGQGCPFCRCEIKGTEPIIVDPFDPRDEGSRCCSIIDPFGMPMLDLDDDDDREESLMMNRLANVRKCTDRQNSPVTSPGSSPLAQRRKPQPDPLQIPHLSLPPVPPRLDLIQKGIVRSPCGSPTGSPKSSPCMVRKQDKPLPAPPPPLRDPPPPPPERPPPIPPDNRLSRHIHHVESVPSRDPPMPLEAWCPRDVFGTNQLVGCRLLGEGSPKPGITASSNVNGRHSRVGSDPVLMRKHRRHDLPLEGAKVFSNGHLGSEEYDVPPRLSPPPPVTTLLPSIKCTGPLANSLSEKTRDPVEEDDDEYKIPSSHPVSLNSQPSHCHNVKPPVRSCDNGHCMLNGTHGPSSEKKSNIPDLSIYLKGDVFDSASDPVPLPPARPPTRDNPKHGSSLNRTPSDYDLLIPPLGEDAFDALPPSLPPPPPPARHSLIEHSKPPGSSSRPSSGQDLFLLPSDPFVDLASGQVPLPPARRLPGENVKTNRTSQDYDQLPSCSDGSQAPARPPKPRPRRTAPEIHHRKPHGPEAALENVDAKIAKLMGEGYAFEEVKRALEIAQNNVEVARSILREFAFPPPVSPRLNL

Structure (SMILES) | IC50 [µM]
CC1CC(c2cccc(-n3cc(C4CC4)c4cc(-c5cnn(C)c5)[nH]c4c3=O)c2)(c2nncn2C)C1 (mixture of isomers) [Example 32, 4-cyclopropyl-6-{3-[3-methyl-1-(4-methyl-4H-1,2,4-triazol-3-yl)cyclobutyl]phenyl}-2-(1-methyl-1H-pyrazol-4-yl)-1H,6H,7H-pyrrolo[2,3-c]pyridin-7-one] | 1 to 5
Cn1cnnc1[C@]1(c2cccc(-n3cc(C4CC4)c4c(C(=O)O)c[nH]c4c3=O)c2)C[C@@H](C)C1 (single isomer, unassigned) [Example 20, 4-Cyclopropyl-7-oxo-6-{3-[(1s,3r)-3-methyl-1-(4-methyl-4H-1,2,4-triazol-3-yl)cyclobutyl]phenyl}-1H,6H,7H-pyrrolo[2,3-c]pyridine-3-carboxylic acid] | 1 to 5
Cn1cnnc1[C@]1(c2cccc(-n3ccc4cc[nH]c4c3=O)c2)C[C@H](C)C1 (single isomer, unassigned) [Example 30, 6-{3-[(1r,3s)-3-methyl-1-(4-methyl-4H-1,2,4-triazol-3-yl)cyclobutyl]phenyl}-1H,6H,7H-pyrrolo[2,3-c]pyridin-7-one] | 1 to 5
CC1CC(c2cccc(-n3cc(C4CC4)c4cc(CN5CCC[C@H](C)C5)n(C)c4c3=O)c2)(c2nncn2C)C1 (stereo partly drawn) [Example 5, 4-cyclopropyl-1-methyl-6-[3-[3-methyl-1-(4-methyl-1,2,4-triazol-3-yl)cyclobutyl]phenyl]-2-[[(3S)-3-methylpiperidin-1-yl]methyl]pyrrolo[2,3-c]pyridin-7-one] | > 5
CC1CC(c2cccc(-n3nc(C4CC4)c4cc[nH]c4c3=O)c2)(c2nncn2C)C1 (stereo not shown) [Example 116, 4-cyclopropyl-6-{3-[3-methyl-1-(4-methyl-4H-1,2,4-triazol-3-yl)cyclobutyl]phenyl}-1H,6H,7H-pyrrolo[2,3-d]pyridazin-7-one] | 1 to 5
CC1CC(c2cccc(-n3cc(C4CC4)c4cc(CN5CC6CC(C5)O6)[nH]c4c3=O)c2)(c2nncn2C)C1 (stereo not shown) [Example 53, 4-cyclopropyl-6-{3-[3-methyl-1-(4-methyl-4H-1,2,4-triazol-3-yl)cyclobutyl]phenyl}-2-({6-oxa-3-azabicyclo[3.1.1]heptan-3-yl}methyl)-1H,6H,7H-pyrrolo[2,3-c]pyridin-7-one] | < 0.1
CC(O)c1c[nH]c2c(=O)n(-c3cccc([C@]4(c5nncn5C)C[C@H](C)C4)c3)cc(C3CC3)c12 (single isomer, unassigned) [Example 24] | 0.1 to 1
CC1CC(c2cccc(-n3cc(C4CC4)c4c(CO)c[nH]c4c3=O)c2)(c2nncn2C)C1 (mixture of isomers) [Example 16, 4-Cyclopropyl-3-(hydroxymethyl)-6-{3-[3-methyl-1-(4-methyl-4H-1,2,4-triazol-3-yl)cyclobutyl]phenyl}-1H,6H,7H-pyrrolo[2,3-c]pyridin-7-one] | 0.1 to 1
Cc1cn(-c2cccc([C@]3(c4nncn4C)C[C@@H](C)C3)c2)c(=O)c2[nH]ccc12 [Example 29, 4-methyl-6-{3-[(1r,3s)-3-methyl-1-(4-methyl-4H-1,2,4-triazol-3-yl)cyclobutyl]phenyl}-1H,6H,7H-pyrrolo[2,3-c]pyridin-7-one] | 0.1 to 1
Cn1cnnc1[C@]1(c2cccc(-n3ccc4cc[nH]c4c3=O)c2)C[C@@H](C)C1 (single isomer, unassigned) [Example 31, 6-{3-[(1s,3r)-3-methyl-1-(4-methyl-4H-1,2,4-triazol-3-yl)cyclobutyl]phenyl}-1H,6H,7H-pyrrolo[2,3-c]pyridin-7-one] | 1 to 5
Cn1cnnc1[C@]1(c2cccc(-n3cc(C4CC4)c4c(C(F)(F)F)c[nH]c4c3=O)c2)C[C@H](C)C1 [Example 18, 4-Cyclopropyl-6-{3-[(1r,3s)-3-methyl-1-(4-methyl-4H-1,2,4-triazol-3-yl)cyclobutyl]phenyl}-3-(trifluoromethyl)-1H,6H,7H-pyrrolo[2,3-c]pyridin-7-one] | 0.1 to 1
Cn1cnnc1[C@]1(c2cccc(-n3ccc4c(C5CC5)c[nH]c4c3=O)c2)C[C@H](C)C1 (single isomer, unassigned) [Example 13, 3-cyclopropyl-6-{3-[(1r,3s)-3-methyl-1-(4-methyl-4H-1,2,4-triazol-3-yl)cyclobutyl]phenyl}-1H,6H,7H-pyrrolo[2,3-c]pyridin-7-one] | 0.1 to 1
Cc1c[nH]c2c(=O)n(-c3cccc([C@]4(c5nncn5C)C[C@@H](C)C4)c3)cc(C3CC3)c12 [Example 17, 4-Cyclopropyl-3-methyl-6-{3-[(1r,3s)-3-methyl-1-(4-methyl-4H-1,2,4-triazol-3-yl)cyclobutyl]phenyl}-1H,6H,7H-pyrrolo[2,3-c]pyridin-7-one] | 0.1 to 1
CC1CC(c2cccc(-n3cc(C4CC4)c4nc[nH]c4c3=O)c2)(c2nncn2C)C1 (stereo not shown) [Example 11, 7-cyclopropyl-5-{3-[(1r,3s)-3-methyl-1-(4-methyl-4H-1,2,4-triazol-3-yl)cyclobutyl]phenyl}-3H,4H,5H-imidazo[4,5-c]pyridin-4-one] | 0.1 to 1
Cn1cnnc1[C@]1(c2cccc(-n3cc(C4CC4)c4c(C(=O)O)c[nH]c4c3=O)c2)C[C@H](C)C1 (single isomer, unassigned) [Example 19, 4-Cyclopropyl-7-oxo-6-{3-[(1r,3s)-3-methyl-1-(4-methyl-4H-1,2,4-triazol-3-yl)cyclobutyl]phenyl}-1H,6H,7H-pyrrolo[2,3-c]pyridine-3-carboxylic acid] | 1 to 5

Further lines, results first:

IC50 [µM] | Structure (SMILES)
0.1 to 1 | CC(Sc1nncn1C)c1cccc(-n2cc(C3CC3)c3cc(CN4CCC[C@H](C)C4)[nH]c3c2=O)c1 (stereo partly drawn) [Example 2, 4-cyclopropyl-2-[[(3S)-3-methylpiperidin-1-yl]methyl]-6-[3-[1-[(4-methyl-1,2,4-triazol-3-yl)sulfanyl]ethyl]phenyl]-1H-pyrrolo[2,3-c]pyridin-7-one]
0.1 to 1 | Cn1cnnc1[C@]1(c2cccc(-n3cc(C4CC4)c4c(S(C)(=O)=O)c[nH]c4c3=O)c2)C[C@@H](C)C1 (single isomer, unassigned) [Example 26, 4-Cyclopropyl-3-methanesulfonyl-6-{3-[(1s,3r)-3-methyl-1-(4-methyl-4H-1,2,4-triazol-3-yl)cyclobutyl]phenyl}-1H,6H,7H-pyrrolo[2,3-c]pyridin-7-one]
0.1 to 1 | CN1CCC(c2cc3c(C4CC4)cn(-c4cccc([C@]5(c6nncn6C)C[C@@H](C)C5)c4)c(=O)c3[nH]2)CC1 [Example 33, 4-cyclopropyl-2-(1-methylpiperidin-4-yl)-6-{3-[(1r,3s)-3-methyl-1-(4-methyl-4H-1,2,4-triazol-3-yl)cyclobutyl]phenyl}-1H,6H,7H-pyrrolo[2,3-c]pyridin-7-one]
< 0.1 | Cn1cnnc1[C@]1(c2cccc(-n3cc(C(F)(F)F)c4c(S(C)(=O)=O)c[nH]c4c3=O)c2)C[C@H](C)C1 [Example 138, 3-Methanesulfonyl-6-{3-[(1R,3S)-3-methyl-1-(4-methyl-4H-1,2,4-triazol-3-yl)cyclobutyl]phenyl}-4-(trifluoromethyl)-1H,6H,7H-pyrrolo[2,3-c]pyridin-7-one]
0.1 to 1 | CC(O)c1c[nH]c2c(=O)n(-c3cccc([C@]4(c5nncn5C)C[C@@H](C)C4)c3)cc(C3CC3)c12 (single isomer, unassigned) [Example 23]
< 0.1 | CC1CC(c2cccc(-n3cc(C(F)(F)F)c4c(S(C)(=O)=O)c[nH]c4c3=O)c2)(c2nncn2C)C1 (mixture of isomers) [Example 139, 3-Methanesulfonyl-6-{3-[(1S,3R)-3-methyl-1-(4-methyl-4H-1,2,4-triazol-3-yl)cyclobutyl]phenyl}-4-(trifluoromethyl)-1H,6H,7H-pyrrolo[2,3-c]pyridin-7-one]
< 0.1 | CC(=O)c1c[nH]c2c(=O)n(-c3cccc([C@]4(c5nncn5C)C[C@@H](C)C4)c3)cc(C3CC3)c12 (single isomer, unassigned) [Example 21, 3-Acetyl-4-cyclopropyl-6-{3-[(1r,3s)-3-methyl-1-(4-methyl-4H-1,2,4-triazol-3-yl)cyclobutyl]phenyl}-1H,6H,7H-pyrrolo[2,3-c]pyridin-7-one]
< 0.1 | CC1CC(c2cccc(-n3cc(C4CC4)c4cc(CN5CCCC6CC65)[nH]c4c3=O)c2)(c2nncn2C)C1 (stereo not shown) [Example 44, 2-({2-azabicyclo[4.1.0]heptan-2-yl}methyl)-4-cyclopropyl-6-{3-[3-methyl-1-(4-methyl-4H-1,2,4-triazol-3-yl)cyclobutyl]phenyl}-1H,6H,7H-pyrrolo[2,3-c]pyridin-7-one]
< 0.1 | CC1CC(c2cccc(-n3cc(C(F)(F)F)c4c(C#N)c[nH]c4c3=O)c2)(c2nncn2C)C1 (mixture of isomers) [Example 136, 7-Oxo-6-{3-[(1R,3S)-3-methyl-1-(4-methyl-4H-1,2,4-triazol-3-yl)cyclobutyl]phenyl}-4-(trifluoromethyl)-1H,6H,7H-pyrrolo[2,3-c]pyridine-3-carbonitrile]
< 0.1 | Cn1cnnc1C1(c2cccc(-n3cc(C4CC4)c4cc(CNC5(C)CC(F)(F)C5)[nH]c4c3=O)c2)CC(F)(F)C1 [Example 81, 4-cyclopropyl-6-{3-[3,3-difluoro-1-(4-methyl-4H-1,2,4-triazol-3-yl)cyclobutyl]phenyl}-2-{[(3,3-difluoro-1-methylcyclobutyl)amino]methyl}-1H,6H,7H-pyrrolo[2,3-c]pyridin-7-one]
